Experimental data taken from patent US7776924B2, “Nitroaniline-based alkylating agents and their use as prodrugs” (Auckland Uniservices Limited, priority 2002, dated 2010).

Tests used:
WIDR = test: Cytotoxicity in wild-type (NR−) human colon cell line WIDR; type: cell-based; conditions: 18 h exposure
SKOV3 = test: Cytotoxicity in wild-type (NR−) human ovarian cell line SKOV3; type: cell-based
[1] = system: A549 human lung carcinoma cells; test: Cytotoxicity in oxic and anoxic wild-type A549 human lung carcinoma cells; type: cell-based; conditions: 4 h exposure; for IC50: anoxic, read-out: IC50 WT anoxic
WC14.10 = test: Cytotoxicity in NTR-transfected (NR+) human colon cell line WC14.10; type: cell-based; conditions: for IC50: WC14.10 NTR-transfected, 18 h exposure; for Ratio = IC50(NR−)/IC50(NR+) Human colon: WIDR / WC14.10, 18 h exposure
SC3.2 = test: Cytotoxicity in NTR-transfected (NR+) human ovarian cell line SC3.2; type: cell-based; conditions: for IC50: SC3.2 NTR-transfected, 18 h exposure; for Ratio = IC50(NR−)/IC50(NR+) Human Ovarian: SKOV3 / SC3.2, 18 h exposure
[2] = system: A549 transfected with human cytochrome P450 reductase (P450R); test: Cytotoxicity in oxic and anoxic A549 cells transfected with human cytochrome P450 reductase; type: cell-based; conditions: 4 h exposure; for IC50: anoxic
[3] = Friedlos et al., J. Med. Chem. 1997, 40, 1270; cited from earlier work

SMILES: CS(=O)(=O)OCCN(CCBr)c1c(C(=O)NCCO)cc([N+](=O)[O-])cc1[N+](=O)[O-] [IIb3, 2-((2-Bromoethyl)-2-{[(2-hydroxyethyl)amino]carbonyl}-4,6-dinitroanilino)ethyl methanesulfonate]
- IC50 (WIDR): 3.7 µM
- IC50 (SKOV3; 18 h exposure): 5.2 µM
- WT Ratio = IC50(aerobic)/IC50(anoxic) [1]: 26
- IC50 [1]: 2.3 µM
- IC50 (WC14.10): 0.06 µM
- Ratio = IC50(NR−)/IC50(NR+) Human colon (WC14.10): 66
- IC50 (SC3.2): 0.04 µM
- Ratio = IC50(NR−)/IC50(NR+) Human Ovarian (SC3.2): 142
- P450R ratio = IC50(aerobic)/IC50(anoxic) [2]: 133
- IC50 [2]: 0.28 µM

SMILES: COC(=O)CCNC(=O)c1cc([N+](=O)[O-])cc([N+](=O)[O-])c1N(CCCl)CCOS(C)(=O)=O [IIb8, Methyl 3-{[2-((2-chloroethyl){2-[(methylsulfonyl)oxy]ethyl}amino)-3,5-dinitrobenzoyl]amino}propanoate]
- IC50 (WIDR; Homo sapiens): 4.3 µM
- melting point: 128 to 130 °C
- IC50 (SKOV3; Homo sapiens, SK-OV-3, 18 h exposure): 9.7 µM
- IC50 (WC14.10; Homo sapiens): 0.36 µM
- Ratio = IC50(NR−)/IC50(NR+) Human colon (WC14.10): 13
- IC50 (SC3.2; Homo sapiens): 0.19 µM
- Ratio = IC50(NR−)/IC50(NR+) Human Ovarian (SC3.2): 51

SMILES: CS(=O)(=O)OCCN(CCCl)c1ccc([N+](=O)[O-])c(C(=O)NCCCO)c1[N+](=O)[O-] [IIc4, 2-((2-Chloroethyl)-3-{[(3-hydroxypropyl)amino]carbonyl}-2,4-dinitroanilino)ethyl methanesulfonate]
- IC50 (WIDR): 392 µM
- IC50 (SKOV3; 18 h exposure): 800 µM
- WT Ratio = IC50(aerobic)/IC50(anoxic) [1]: 26
- IC50 [1]: 82 µM
- IC50 (WC14.10): 2.6 µM
- Ratio = IC50(NR−)/IC50(NR+) Human colon (WC14.10): 215
- IC50 (SC3.2): 1.6 µM
- Ratio = IC50(NR−)/IC50(NR+) Human Ovarian (SC3.2): 549
- P450R ratio = IC50(aerobic)/IC50(anoxic) [2]: 108
- IC50 [2]: 7.3 µM

SMILES: CS(=O)(=O)OCCN(CCBr)c1c([N+](=O)[O-])ccc(C(=O)NCCCO)c1[N+](=O)[O-] [IIc5, 2-((2-Bromoethyl)-3-{[(3-hydroxypropyl)amino]carbonyl}-2,6-dinitroanilino)ethyl methanesulfonate]
- IC50 (WIDR): 209 µM
- IC50 (SKOV3; 18 h exposure): 280 µM
- WT Ratio = IC50(aerobic)/IC50(anoxic) [1]: 30
- IC50 [1]: 52 µM
- IC50 (WC14.10): 0.85 µM
- Ratio = IC50(NR−)/IC50(NR+) Human colon (WC14.10): 301
- IC50 (SC3.2): 0.57 µM
- Ratio = IC50(NR−)/IC50(NR+) Human Ovarian (SC3.2): 497
- P450R ratio = IC50(aerobic)/IC50(anoxic) [2]: 134
- IC50 [2]: 4.5 µM

SMILES: CS(=O)(=O)OCCN(CCCl)c1cc(C(N)=O)c([N+](=O)[O-])cc1[N+](=O)[O-] [No 5, 2-[5-(aminocarbonyl)(2-chloroethyl)-2,4-dinitroanilino]ethyl methanesulfonate]
- potency as described in the literature [3]: not sufficiently potent for a full biological evaluation to be conducted
